*1 amine or outer side, *2 acyl side, *3 side chain or, on linkers, in order; H or OH if unused. Where a SMILES comes first, the peptide text is derived from it. Bridges are numbered along the chain shown (N, C = ends). Roman numbers before positions name the chains, in order. [ ]: non-standard residue; d: D form. The star is where a group is joined. hNle(7-SH) = O=C([C@H](CCCCCS[*:3])N[*:1])[*:2]; X1 = CN(C)C(=O)c1cc(S*)ccc1[N+](=O)[O-]; Gly((CH2)5SH) = N[C@@H](CCCCCS)C(=O)O; dPip = O=C(O)[C@H]1CCCCN1
How the values were obtained:
human HDAC1 = biological target: T1, human HDAC1 (Homo sapiens, UniProt Q13547); experiment: In vitro HDAC inhibition activity, [3H]-acetylated histone substrate, HDAC1; format: biochemical
T1 construct: FLAG; made in house; host or cells: 293T cells (transient transfection, anti-FLAG immunoprecipitation, FLAG peptide elution)
T1 sequence (Q13547 whole entry): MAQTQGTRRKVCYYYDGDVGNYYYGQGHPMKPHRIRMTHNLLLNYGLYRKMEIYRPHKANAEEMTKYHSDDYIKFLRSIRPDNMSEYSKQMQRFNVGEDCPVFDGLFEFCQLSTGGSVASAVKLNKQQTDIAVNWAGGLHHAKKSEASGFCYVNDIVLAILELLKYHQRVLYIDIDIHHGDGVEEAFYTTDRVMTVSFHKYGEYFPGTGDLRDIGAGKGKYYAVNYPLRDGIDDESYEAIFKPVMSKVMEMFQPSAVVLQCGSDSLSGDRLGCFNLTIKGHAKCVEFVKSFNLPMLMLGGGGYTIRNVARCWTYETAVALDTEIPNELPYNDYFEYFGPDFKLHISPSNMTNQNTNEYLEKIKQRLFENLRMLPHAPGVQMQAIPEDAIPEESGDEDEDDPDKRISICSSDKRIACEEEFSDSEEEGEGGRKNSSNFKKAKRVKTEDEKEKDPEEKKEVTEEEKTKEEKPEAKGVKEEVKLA
Method: (§1) To measure HDAC inhibition activity, an HDAC solution was prepared as described below. 1×10^7 of 293T cells were plated on to a 100-mm dish and, after 24 hours, transfected with vectors (1 μg) expressing human HDAC1 and HDAC4 or mouse HDAC6, using LipofectAmine 2000 reagent (Life Technologies, Inc. Gaithersburg, Md.). […] The vectors were introduced for five hours in OPTI-MEM. The medium was then replaced with Dulbecco's modified Eagle's medium (DMEM), and incubated for 19 hours. The cells were washed with PBS, suspended in lysis buffer (50 mM Tris-HCl (pH7.5), 120 mM NaCl, 5 mM EDTA, and 0.5% Nonidet P-40), and sonicated. The supernatant was collected by centrifugation and nonspecific protein was removed using Protein A/G plus agarose beads (Santa Cruz Biotechnologies, Inc.). Anti-FLAG M2 antibodies (Sigma-Aldrich, Inc.) were added to the supernatant of cells expressing HDAC1 or HDAC4. Anti-HA antibodies (clone 3F10, Roche Molecular Biochemicals) were added to the supernatant of cells expressing HDAC6. Reaction in the respective mixtures was carried out at 4° C. for one hour. The resulting reaction mixtures were independently mixed with agarose beads and further reacted at 4° C. for one hour. The agarose beads were washed three times with lysis buffer and then washed once with HD buffer (20 mM Tris-HCl (pH8.0), 150 mM NaCl, 10% glycerol, and a complete protease inhibitor cocktail (Boehringer Mannheim, Germany)). […] The HDAC reaction solution was used for determining HDAC inhibition activity as shown below.
(§2) In vitro HDAC inhibition activity was evaluated as follows: A test compound was dissolved in DMSO and adjusted to 10 mM. This was used as an inhibitor stock solution. […] These reactions were stopped by adding 10 μl HCl. The [^3H] acetic acid excised by the enzyme reaction was extracted with ethyl acetate and subjected to radioactive dose measurement. As a negative control, the same procedure was carried out in which no inhibitor was added to the reaction system. The inhibition activity was expressed as a 50% inhibition concentration (“IC50 (nM)”) of the HDAC activity in the negative control (Tables 1 to 4).

human HDAC4 = biological target: T2, human HDAC4 (Homo sapiens, UniProt P56524); experiment: In vitro HDAC inhibition activity, [3H]-acetylated histone substrate, HDAC4; format: biochemical
T2 construct: FLAG; made in house; host or cells: 293T cells (transient transfection, anti-FLAG immunoprecipitation, FLAG peptide elution)
T2 sequence (O15379 whole entry partner): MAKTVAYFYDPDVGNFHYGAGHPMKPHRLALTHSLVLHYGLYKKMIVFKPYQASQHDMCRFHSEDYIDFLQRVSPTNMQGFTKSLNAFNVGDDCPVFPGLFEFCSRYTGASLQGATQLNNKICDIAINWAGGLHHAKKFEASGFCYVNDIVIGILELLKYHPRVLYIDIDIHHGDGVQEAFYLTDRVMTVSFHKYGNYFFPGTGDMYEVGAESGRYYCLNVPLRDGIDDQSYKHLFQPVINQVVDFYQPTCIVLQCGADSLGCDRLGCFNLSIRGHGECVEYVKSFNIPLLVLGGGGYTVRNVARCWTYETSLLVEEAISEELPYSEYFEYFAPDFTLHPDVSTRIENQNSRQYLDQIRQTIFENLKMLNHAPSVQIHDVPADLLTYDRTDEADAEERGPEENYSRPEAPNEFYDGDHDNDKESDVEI
T2 sequence (P56524 whole entry): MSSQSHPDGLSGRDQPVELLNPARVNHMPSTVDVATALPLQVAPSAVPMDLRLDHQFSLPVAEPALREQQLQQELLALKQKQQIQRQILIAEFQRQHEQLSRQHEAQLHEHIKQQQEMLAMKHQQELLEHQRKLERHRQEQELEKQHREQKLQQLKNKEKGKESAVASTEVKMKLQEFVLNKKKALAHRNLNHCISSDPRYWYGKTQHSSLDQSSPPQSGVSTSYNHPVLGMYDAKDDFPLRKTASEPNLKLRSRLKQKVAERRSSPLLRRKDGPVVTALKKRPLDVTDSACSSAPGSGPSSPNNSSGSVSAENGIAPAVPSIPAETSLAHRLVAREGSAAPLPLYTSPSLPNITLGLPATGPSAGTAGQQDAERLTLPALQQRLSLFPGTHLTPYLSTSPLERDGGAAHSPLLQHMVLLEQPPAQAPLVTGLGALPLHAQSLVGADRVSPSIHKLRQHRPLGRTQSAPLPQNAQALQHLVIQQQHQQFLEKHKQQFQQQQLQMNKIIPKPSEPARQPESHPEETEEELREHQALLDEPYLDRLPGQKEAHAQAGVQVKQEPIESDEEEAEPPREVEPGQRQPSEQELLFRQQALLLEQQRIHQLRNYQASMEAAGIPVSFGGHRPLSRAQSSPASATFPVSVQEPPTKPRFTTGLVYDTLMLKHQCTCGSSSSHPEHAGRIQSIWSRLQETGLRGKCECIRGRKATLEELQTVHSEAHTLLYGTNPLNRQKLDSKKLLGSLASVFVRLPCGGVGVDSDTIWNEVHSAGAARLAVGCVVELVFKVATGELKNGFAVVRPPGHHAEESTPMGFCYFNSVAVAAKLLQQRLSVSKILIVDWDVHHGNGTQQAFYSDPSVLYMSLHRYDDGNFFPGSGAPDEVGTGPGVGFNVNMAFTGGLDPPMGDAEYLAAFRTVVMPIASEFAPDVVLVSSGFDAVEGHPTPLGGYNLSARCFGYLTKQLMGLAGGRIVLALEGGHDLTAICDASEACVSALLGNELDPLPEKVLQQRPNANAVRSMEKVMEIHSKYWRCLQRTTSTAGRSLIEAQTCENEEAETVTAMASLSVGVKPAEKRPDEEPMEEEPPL
Method: as §1, §2

mouse HDAC6 = biological target: T3, mouse HDAC6 (Mus musculus, UniProt Q9Z2V5); experiment: In vitro HDAC inhibition activity, [3H]-acetylated histone substrate, HDAC6; format: biochemical
T3 construct: HA; made in house; host or cells: 293T cells (transient transfection, anti-HA immunoprecipitation, HA peptide elution)
T3 sequence (Q9Z2V5 1-1149): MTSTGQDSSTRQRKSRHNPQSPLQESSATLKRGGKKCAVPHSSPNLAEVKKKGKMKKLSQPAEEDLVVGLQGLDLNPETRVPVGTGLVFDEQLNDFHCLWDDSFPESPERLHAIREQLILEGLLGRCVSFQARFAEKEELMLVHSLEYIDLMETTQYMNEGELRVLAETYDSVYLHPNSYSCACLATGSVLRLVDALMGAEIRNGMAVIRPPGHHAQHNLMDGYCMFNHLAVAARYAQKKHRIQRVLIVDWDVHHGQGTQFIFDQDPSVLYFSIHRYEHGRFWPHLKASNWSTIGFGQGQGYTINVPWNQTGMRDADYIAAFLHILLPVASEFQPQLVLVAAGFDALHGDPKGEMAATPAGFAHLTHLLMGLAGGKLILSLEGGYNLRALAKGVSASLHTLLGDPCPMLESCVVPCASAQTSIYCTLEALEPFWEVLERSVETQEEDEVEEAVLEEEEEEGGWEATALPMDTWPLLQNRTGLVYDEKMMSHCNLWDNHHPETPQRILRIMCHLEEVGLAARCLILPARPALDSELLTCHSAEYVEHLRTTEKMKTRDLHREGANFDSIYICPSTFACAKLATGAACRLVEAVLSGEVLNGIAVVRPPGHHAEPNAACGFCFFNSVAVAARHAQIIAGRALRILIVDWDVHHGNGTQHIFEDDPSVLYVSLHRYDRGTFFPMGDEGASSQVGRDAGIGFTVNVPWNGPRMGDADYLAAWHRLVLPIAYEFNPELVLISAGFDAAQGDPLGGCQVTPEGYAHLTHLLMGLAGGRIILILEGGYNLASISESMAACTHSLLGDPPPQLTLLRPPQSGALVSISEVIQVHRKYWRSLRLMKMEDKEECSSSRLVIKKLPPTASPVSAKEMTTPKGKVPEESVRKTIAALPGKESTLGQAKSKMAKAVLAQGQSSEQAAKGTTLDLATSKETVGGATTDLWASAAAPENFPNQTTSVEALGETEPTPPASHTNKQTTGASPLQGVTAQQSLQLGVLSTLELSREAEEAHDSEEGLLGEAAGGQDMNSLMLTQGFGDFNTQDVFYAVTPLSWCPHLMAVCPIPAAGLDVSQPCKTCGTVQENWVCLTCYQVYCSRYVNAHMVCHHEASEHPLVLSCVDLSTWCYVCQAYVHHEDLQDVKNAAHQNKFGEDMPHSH
Method: as §1, §2

[1] = test system: human wild-type p21 promoter; experiment: p21 promoter-inducing activity (luciferase) in MFLL-9 cells; format: cell-based
Method: The HDAC inhibition activity in vivo was measured using p21 promoter-inducing activity as an index, as shown below. The MFLL-9 cells employed for the experiments stably maintained fusion genes of human wild-type p21 promoter and luciferase (Dr. B. Vogelstaein). Using phenol red-free DMEM medium comprising 10% FBS, cultivation was carried out in a steam-saturated incubator at 37° C. with 5% carbon dioxide. The MFLL-9 cells were plated at a density of 85,000 cells/well on a 96-well microtiter plate, each in 99 μl of the above-mentioned medium. These were then cultivated for six hours. One μl of test compound solution was added to each well, which was then cultured for another 18 hours.
The intensity of luminescence caused by the product of the enzyme reaction for intracellular luciferase expression was measured using Luc Lite (Packard BioScience Company). A group in which test compounds were not added was used as a negative control group. The values measured for this group were used as a standard. The activities for each concentration of added test compound were expressed relative to the above-mentioned standard value, 1.

[2] = Table 1, X = H (coexisting with DTT)
[3] = Table 1, X = H (coexisting with DTT), 50% of maximum active value for TSA
[4] = Table 3, hybrid with DTT (/DTT)

SMILES: CC[C@H](C)[C@@H]1NC(=O)[C@@H](Cc2ccc(OC)cc2)NC(=O)[C@H](CCCCCCCS)NC(=O)[C@H]2CCCN2C1=O [SCOP 154]
- IC50 (human HDAC1; [2]): 38.1 nM
- IC50 (human HDAC4; [2]): 99.2 nM
- IC50 (mouse HDAC6; [2]): 2470 nM
- EC50 [1, 3]: 31.4 µM

SMILES: CC[C@H](C)[C@@H]1NC(=O)[C@@H](Cc2ccc(OC)cc2)NC(=O)[C@H](CCCCCCS)NC(=O)[C@H]2CCCN2C1=O [SCOP 153]
- IC50 (human HDAC1; [2]): 9.13 nM
- IC50 (human HDAC4; [2]): 91 nM
- IC50 (mouse HDAC6; [2]): 8050 nM
- EC50 [1, 3]: 9.85 µM

SMILES: CC[C@H](C)[C@@H]1NC(=O)[C@@H](Cc2ccc(OC)cc2)NC(=O)[C@H](CCCCCSSCCCCC[C@@H]2NC(=O)[C@@H]3CCCN3C(=O)[C@H]([C@@H](C)CC)NC(=O)[C@@H](Cc3ccc(OC)cc3)NC2=O)NC(=O)[C@@H]2CCCN2C1=O [SCOP 296, cyclo(-L-Am7(-)-D-Tyr(Me)-L-Ile-L-Pro-)] (I: cyclo([hNle(7-SH)][dY](Me)IP) / II: cyclo([hNle(7-SH)][dY](Me)IP); disulfide I:1-II:1)
- IC50 (human HDAC1; Table 2, homodimer): 763 nM
- IC50 (human HDAC4; Table 2, homodimer): 222 nM
- IC50 (mouse HDAC6; Table 2, homodimer): > 500000 nM
- EC50 ([1]; Table 2, homodimer): 7.73 µM

SMILES: CC[C@H](C)[C@@H]1NC(=O)[C@@H](Cc2ccc(OC)cc2)NC(=O)[C@H](CCCCS)NC(=O)[C@H]2CCCN2C1=O [SCOP 151]
- IC50 (human HDAC1; [2]): 932 nM
- IC50 (human HDAC4; [2]): 7340 nM
- IC50 (mouse HDAC6; [2]): 28500 nM
- EC50 [1, 3]: > 100 µM

SMILES: CC[C@H](C)[C@@H]1NC(=O)[C@@H](Cc2ccc(OC)cc2)NC(=O)[C@H](CCCCCSSCCO)NC(=O)[C@H]2CCCN2C1=O [SCOP 404, cyclo(-L-Am7(SMEt)-D-Tyr(Me)-L-Ile-D-Pro-)]
- IC50 (human HDAC1; [4]): 2.44 nM
- IC50 (human HDAC1; Table 3, hybrid, without DTT): 217 nM
- IC50 (human HDAC4; [4]): 13 nM
- IC50 (human HDAC4; Table 3, hybrid, without DTT): 355 nM
- IC50 (mouse HDAC6; [4]): 15400 nM
- IC50 (mouse HDAC6; Table 3, hybrid, without DTT): 201000 nM
- EC50 [1, 4]: 0.754 µM
- EC50 ([1]; Table 3, hybrid, without DTT): 1.36 µM

SMILES: CC[C@H](C)[C@@H]1NC(=O)[C@@H](Cc2ccc(OC)cc2)NC(=O)[C@H](CCCCSSCCCC[C@@H]2NC(=O)[C@H]3CCCN3C(=O)[C@H]([C@@H](C)CC)NC(=O)[C@@H](Cc3ccc(OC)cc3)NC2=O)NC(=O)[C@H]2CCCN2C1=O [SCOP 302, cyclo(-L-Am6(-)-D-Tyr(Me)-L-Ile-D-Pro-]
- IC50 (human HDAC1; Table 2, homodimer): 7200 nM
- IC50 (human HDAC4; Table 2, homodimer): > 500000 nM
- IC50 (mouse HDAC6; Table 2, homodimer): > 500000 nM
- EC50 ([1]; Table 2, homodimer): > 100 µM

SMILES: CC[C@H](C)[C@@H]1NC(=O)[C@@H](Cc2ccc(OC)cc2)NC(=O)[C@H](CCCCCSSc2ccc([N+](=O)[O-])c(C(=O)N(C)C)c2)NC(=O)[C@H]2CCCN2C1=O [SCOP 403, cyclo(-L-Am7(SEll)-D-Tyr(Me)-L-Ile-D-Pro-)] (cyclo([hNle(7-SH)](X1)[dY](Me)I[dP]))
- IC50 (human HDAC1; [4]): 1.15 nM
- IC50 (human HDAC1; Table 3, hybrid, without DTT): 21.5 nM
- IC50 (human HDAC4; [4]): 1.53 nM
- IC50 (human HDAC4; Table 3, hybrid, without DTT): 18.9 nM
- IC50 (mouse HDAC6; [4]): 4730 nM
- IC50 (mouse HDAC6; Table 3, hybrid, without DTT): 6080 nM
- EC50 [1, 4]: 0.748 µM
- EC50 ([1]; Table 3, hybrid, without DTT): 1.8 µM

SMILES: CC[C@H](C)[C@@H]1NC(=O)[C@@H](Cc2ccc(OC)cc2)NC(=O)[C@H](CCCCCS)NC(=O)[C@H]2CCCCN2C1=O [SCOP 150] (cyclo([Gly((CH2)5SH)][dY](Me)I[dPip]))
- IC50 (human HDAC1; [2]): 2.1 nM
- IC50 (human HDAC4; [2]): 4.26 nM
- IC50 (mouse HDAC6; [2]): 5560 nM
- EC50 [1, 3]: 0.504 µM
